Results as given in the NIST ThermoML archive (doi:10.1016/j.jct.2005.04.010).
± gives the expanded uncertainty stated by the source.

Key:
[1] = 101.33 kPa, Liquid
[2] = wn = mass fraction of the nth substance listed; settings: 101 kPa, Liquid, w1 = 0.5
[3] = activity coefficient (dimensionless); of the first substance listed, at infinite dilution; xn = mol fraction of the nth substance listed; settings: Liquid, x1 = 0

CCCCCCCCn1cc[n+](C)c1.O=S(=O)([N-]S(=O)(=O)C(F)(F)F)C(F)(F)F
mass density ([1]; 298.15 K): 1325 ± 5 kg/m3 | mass density ([1]; 303.15 K): 1320 ± 5 kg/m3 | mass density ([1]; 308.15 K): 1316 ± 5 kg/m3 | mass density ([1]; 313.15 K): 1311 ± 5 kg/m3 | mass density ([1]; 318.15 K): 1307 ± 5 kg/m3 | mass density ([1]; 323.15 K): 1303 ± 5 kg/m3 | mass density ([1]; 328.15 K): 1298 ± 5 kg/m3 | mass density ([1]; 333.15 K): 1294 ± 5 kg/m3 | mass density ([1]; 338.15 K): 1289 ± 5 kg/m3 | mass density ([1]; 343.15 K): 1285 ± 5 kg/m3

CCCCCC[n+]1ccn(C)c1.O=S(=O)([N-]S(=O)(=O)C(F)(F)F)C(F)(F)F
mass density ([1]; 293.15 K): 1374 ± 5 kg/m3 | mass density ([1]; 298.15 K): 1370 ± 5 kg/m3 | mass density ([1]; 303.15 K): 1365 ± 5 kg/m3 | mass density ([1]; 308.15 K): 1361 ± 5 kg/m3 | mass density ([1]; 313.15 K): 1356 ± 5 kg/m3 | mass density ([1]; 318.15 K): 1352 ± 5 kg/m3 | mass density ([1]; 323.15 K): 1347 ± 5 kg/m3 | mass density ([1]; 328.15 K): 1343 ± 5 kg/m3 | mass density ([1]; 333.15 K): 1339 ± 5 kg/m3 | mass density ([1]; 338.15 K): 1334 ± 5 kg/m3 | mass density ([1]; 343.15 K): 1330 ± 5 kg/m3 | mass density ([1]; 348.15 K): 1325 ± 5 kg/m3 | mass density ([1]; 353.15 K): 1320 ± 5 kg/m3 | mass density ([1]; 358.15 K): 1315 ± 5 kg/m3

CCCC[N+]1(C)CCCC1.O=S(=O)([N-]S(=O)(=O)C(F)(F)F)C(F)(F)F
mass density ([1]; 298.15 K): 1394 ± 5 kg/m3 | mass density ([1]; 303.15 K): 1390 ± 5 kg/m3 | mass density ([1]; 308.15 K): 1388 ± 5 kg/m3 | mass density ([1]; 313.15 K): 1386 ± 5 kg/m3 | mass density ([1]; 318.15 K): 1383 ± 5 kg/m3 | mass density ([1]; 323.15 K): 1381 ± 5 kg/m3 | mass density ([1]; 328.15 K): 1379 ± 5 kg/m3 | mass density ([1]; 333.15 K): 1377 ± 5 kg/m3 | mass density ([1]; 338.15 K): 1373 ± 5 kg/m3 | mass density ([1]; 343.15 K): 1370 ± 5 kg/m3 | mass density ([1]; 348.15 K): 1366 ± 5 kg/m3

CCn1cc[n+](C)c1.O=S(=O)([N-]S(=O)(=O)C(F)(F)F)C(F)(F)F + CCCC[n+]1ccn(C)c1.O=S(=O)([N-]S(=O)(=O)C(F)(F)F)C(F)(F)F
mass density ([2]; 293.15 K): 1483 ± 6 kg/m3 | mass density ([2]; 298.15 K): 1479 ± 6 kg/m3 | mass density ([2]; 303.15 K): 1474 ± 6 kg/m3 | mass density ([2]; 308.15 K): 1469 ± 6 kg/m3 | mass density ([2]; 313.15 K): 1464 ± 6 kg/m3 | mass density ([2]; 318.15 K): 1459 ± 6 kg/m3 | mass density ([2]; 323.15 K): 1454 ± 6 kg/m3 | mass density ([2]; 328.15 K): 1449 ± 6 kg/m3 | mass density ([2]; 333.15 K): 1445 ± 6 kg/m3 | mass density ([2]; 338.15 K): 1440 ± 6 kg/m3 | mass density ([2]; 343.15 K): 1435 ± 6 kg/m3 | mass density ([2]; 348.15 K): 1430 ± 6 kg/m3 | mass density ([2]; 353.15 K): 1425 ± 6 kg/m3 | mass density ([2]; 358.15 K): 1421 ± 6 kg/m3

Cc1ccccc1 [toluene] + CCCCCCCCn1cc[n+](C)c1.O=S(=O)([N-]S(=O)(=O)C(F)(F)F)C(F)(F)F
activity coefficient ([3]; 303.15 K, Chromatography): 0.82 ± 0.03 | activity coefficient ([3]; 313.15 K, Chromatography): 0.83 ± 0.03 | activity coefficient ([3]; 323.15 K, Chromatography): 0.85 ± 0.03 | activity coefficient ([3]; 333.15 K, Chromatography): 0.85 ± 0.03

Cc1ccccc1 [toluene] + CCCCCC[n+]1ccn(C)c1.O=S(=O)([N-]S(=O)(=O)C(F)(F)F)C(F)(F)F
activity coefficient ([3]; 303.15 K, Chromatography): 1.01 ± 0.03 | activity coefficient ([3]; 313.15 K, Chromatography): 1.03 ± 0.03 | activity coefficient ([3]; 323.15 K, Chromatography): 1.05 ± 0.03 | activity coefficient ([3]; 333.15 K, Chromatography): 1.08 ± 0.03

O [water] + CCCCCCCCn1cc[n+](C)c1.O=S(=O)([N-]S(=O)(=O)C(F)(F)F)C(F)(F)F
activity coefficient ([3]; 303.15 K, Chromatography): 3.89 ± 0.18 | activity coefficient ([3]; 303.15 K, dilutor): 3.76 ± 0.19 | activity coefficient ([3]; 313.15 K, Chromatography): 3.52 ± 0.16 | activity coefficient ([3]; 313.15 K, dilutor): 3.51 ± 0.18 | activity coefficient ([3]; 323.15 K, Chromatography): 3.03 ± 0.14 | activity coefficient ([3]; 323.15 K, dilutor): 3.29 ± 0.16 | activity coefficient ([3]; 333.15 K, Chromatography): 2.58 ± 0.12
